According to US20050187240A1, “Aaptamine and isoaaptamine and structural modifications thereof” (The Arizona Board of Regents, Acting for and on behalf of …, priority 2004, published 2005):
Converted amounts (≈) assume the structure as drawn. Where two headings read alike, the source gives them in different places.

Experiments:
[1] = test system: Enterococcus faecalis; test: Broth microdilution susceptibility assay, Enterococcus faecalis; format: cell-based; details: for MIC: Table 4, read-out: Range of minimum inhibitory concentration; for Range of minimum inhibitory concentration: Table 6
[2] = test system: Neisseria gonorrhoeae; test: Broth microdilution susceptibility assay, Neisseria gonorrhoeae; format: cell-based; details: for MIC: Table 4, read-out: Range of minimum inhibitory concentration; for Range of minimum inhibitory concentration: Table 6
[3] = test system: breast MCF-7; test: Cancer cell growth inhibition, breast MCF-7; format: cell-based, human; details: Homo sapiens, MCF7, breast MCF-7
Description: (§1) Biology The cancer cell growth inhibitory properties were examined using the murine P388 lymphocytic leukemia cell line and a selection of human cancer cell lines.
(§2) All of the synthetic products were evaluated against a minipanel of human cancer cell lines, the murine P388 lymphocytic leukemia cell line and a selection of microorganisms.

[4] = test system: colon KM 20L2; test: Cancer cell growth inhibition, colon KM 20L2; format: cell-based, human; details: Homo sapiens, colon KM 20L2
From the text: (§3) Evaluation of demethyloxyaaptamine (3), aaptamine (1), isoaaptamine (2) and hystatin 1 (11) against the Arizona State University Cancer Research Institute's human tumor cell line panel (Table 1) and the NCI 60-cell line human tumor screen were undertaken. (Boyd, M. R., Cancer: Principles and Practices of Oncology Updates; DeVita, et al., Eds; Lippincott: Philadelphia, 1989, Vol. 10, No. 3, pp. 1-12; Boyd, et al., Drug Development Research 1995, 34, 91-109; Boyd, M. R., et al. Cytotoxic Anticancer Drugs: Models and Concepts for Drug Discovery and Development; Valeriote, A., et al., Eds, Kluwer Academic Publishers: Amsterdam, 1992, pp. 11-34.)
as §1, §2

[5] = test system: Stenotrophomonas maltophilia; test: Broth microdilution susceptibility assay, Stenotrophomonas maltophilia; format: cell-based; details: for MIC: Table 4, Stenotrophomonas maltophil, read-out: Range of minimum inhibitory concentration; for Range of minimum inhibitory concentration: Table 6
[6] = test system: CNS SF-268; test: Cancer cell growth inhibition, CNS SF-268; format: cell-based, human; details: Homo sapiens, CNS SF-268
Description: as §1, §2

[7] = test system: murine P388 lymphocytic leukemia cell line; test: Cancer cell growth inhibition, murine P388 lymphocytic leukemia cell line; format: cell-based; details: Mus musculus
From the text: as §3, §1, §2

[8] = test system: lung NCI-H460; test: Cancer cell growth inhibition, lung NCI-H460; format: cell-based, human; details: Homo sapiens, lung NCI-H460
From the text: as §3, §1, §2

[9] = test system: Micrococcus luteus; test: Broth microdilution susceptibility assay, Micrococcus luteus; format: cell-based; details: for MIC: Table 4, read-out: Range of minimum inhibitory concentration; for Range of minimum inhibitory concentration: Table 6
[10] = test system: pancreas BXPC-3; test: Cancer cell growth inhibition, pancreas BXPC-3; format: cell-based, human; details: Homo sapiens, pancreas BXPC-3
Description: as §1, §2

[11] = test system: Escherichia coli; test: Broth microdilution susceptibility assay, Escherichia coli; format: cell-based; details: for MIC: Table 4, read-out: Range of minimum inhibitory concentration; for Range of minimum inhibitory concentration: Table 6
[12] = test system: Staphylococcus aureus; test: Broth microdilution susceptibility assay, Staphylococcus aureus; format: cell-based; details: for MIC: Table 4, read-out: Range of minimum inhibitory concentration; for Range of minimum inhibitory concentration: Table 6
[13] = test system: prostrate DU-145; test: Cancer cell growth inhibition, prostate DU-145; format: cell-based, human; details: Homo sapiens
Description: as §1, §2

[14] = test system: Enterobacter cloacae; test: Broth microdilution susceptibility assay, Enterobacter cloacae; format: cell-based; details: for MIC: Table 4, read-out: Range of minimum inhibitory concentration; for Range of minimum inhibitory concentration: Table 6
[15] = test system: Candida albicans; test: Broth microdilution susceptibility assay, Candida albicans; format: cell-based; details: for MIC: Table 4, read-out: Range of minimum inhibitory concentration; for Range of minimum inhibitory concentration: Table 6
[16] = test system: Cryptococcus neoformans; test: Broth microdilution susceptibility assay, Cryptococcus neoformans; format: cell-based; details: for MIC: Table 4, read-out: Range of minimum inhibitory concentration; for Range of minimum inhibitory concentration: Table 6
[17] = test system: Streptococcus pneumoniae; test: Broth microdilution susceptibility assay, Streptococcus pneumoniae; format: cell-based; details: for MIC: Table 4, read-out: Range of minimum inhibitory concentration; for Range of minimum inhibitory concentration: Table 6
[18] = biological target: T1, PKC alpha (Homo sapiens, UniProt P17252); test: Inhibition of [3H]phorbol 12,13-dibutyrate binding to PKC alpha; details: 30 μM compound; read-out: inhibition of [3H]phorbol 12,13-dibutyrate binding to PKC alpha
Description: Isoaaptamine (2) and derivatives 4, 5, 7, 8, and 14-18 were evaluated as ligands for PKC, based on the initial report of activity for isoaaptamine (Patil, et al., PCT Int. Appl. WO 95/0584 March 1995). Activity was measured at 30 μM compound using inhibition of [^3H-20]phorbol 12,13-dibutyrate binding to PKC alpha as described previously (Kazanietz, M. G., et al., Molecular Pharmacol., 1993, 44, 298). Assays were carried out with triplicate measurements in either single or triplicate experiments, depending on the compound.
Compounds 4, 5, 9a-c, and 10a-d were evaluated as ligands for PKC, based on the initial report of activity for isoaaptamine. Activity was measured at 30 μM compound using inhibition of [20-^3H]phorbol 12,13-dibutyrate binding to PKC alpha as described previously (Kazanietz, M. G., et al., Characterization of Ligand and Substrate Specificity for the Calcium-Dependent and Calcium-Independent Protein Kinase C Isoenzymes, Molecular Pharmacol. 1993, 44, 298-307). Assays were carried out with triplicate measurement in either single or triplicate experiments, depending on the compound. Inhibition by 9a and 9b was 6.4% and 9.2%, respectively. That by 10a, 10b, and 10d was 11.8%, 12.6%, and 16.0%, respectively. That by other derivatives was 5% or less. We conclude that these compounds show only very weak activity as ligands for PKC.

[19] = biological target: T1, PKC alpha; test: Inhibition of PKC catalytic activity (peptide substrate phosphorylation); format: biochemical; details: 30 μM compound; 1 μM phorbol 12-myristate 13-acetate, 100 μg/ml phospholipid; mean±SEM, three experiments; read-out: percent inhibition of PKC catalytic activity
From the text: We further evaluated the ability of the derivatives to inhibit PKC catalytic activity. […] Inhibition by 10c was 19.5±7.6% and inhibition by 4, 5, and 9a, b, c was 6% or less (all values are mean±SEM, three experiments). […] In both cases, the inhibition curves were steeper than predicted for a competitive inhibitor, consistent with a complicated mechanism of action (Hill coefficients for 10a and 10b of 1.5±0.1 and 2.0±0.5, respectively).

[20] = Table 3, read-out: Cancer cell growth inhibitory ED50
[21] = P388, Table 3, leukemia P-388, read-out: Cancer cell growth inhibitory ED50
[22] = Table 3, prostrate DU-145, read-out: Cancer cell growth inhibitory ED50
[23] = Table 5, read-out: Cancer Cell Line Results ED50
[24] = Table 5, leukemia P388, read-out: Cancer Cell Line Results ED50
[25] = DU-145, Table 5, prostate DRU-145, read-out: Cancer Cell Line Results ED50

| Compound | MIC [1] [µg/mL] | MIC [2] [µg/mL] | IC50 [3, 20] [µg/mL] | IC50 [4, 20] [µg/mL] | MIC [5] [µg/mL] | IC50 [6, 20] [µg/mL] | IC50 [7, 21] [µg/mL] | IC50 [8, 20] [µg/mL] | MIC [9] [µg/mL] | IC50 [10, 20] [µg/mL] | MIC [11] [µg/mL] | MIC [12] [µg/mL] | IC50 [13, 22] [µg/mL] | MIC [14] [µg/mL] | MIC [15] [µg/mL] | MIC [16] [µg/mL] | MIC [17] [µg/mL] | Range of minimum inhibitory concentration [1] | Range of minimum inhibitory concentration [2] | IC50 [3, 23] [µg/mL] | also measured |
| --- | --- | --- | --- | --- | --- | --- | --- | --- | --- | --- | --- | --- | --- | --- | --- | --- | --- | --- | --- | --- | --- |
| COc1cc2c3c(ccnc3c1O)N(C)C=C2 [Compound 8, 4-Methyl-8-methoxy-9-hydroxy-4H-benzo[de][1,6]naphthyridine] | > 64 | 4 (≈ 17.5 µM) | > 10 | > 10 | > 64 | > 10 | > 10 | > 10 | > 64 | > 10 | > 64 | > 64 | > 10 | > 64 | > 64 | > 64 | > 64 |  |  |  |  |
| COc1ccc(C[n+]2ccc3c4c(cc(OC)c(OC)c42)C=CN3Cc2cc(OC)c(OC)c(OC)c2)cc1O.[Br-] [Compound 10d, 8,9-Dimethoxy-1-(3-hydroxy-4-methoxybenzyl)-4-(3,4,5-trimethoxybenzyl)-4H-benzo[de][1,6]naphthyridin-1-ium bromide] |  |  |  |  |  |  |  |  |  |  |  |  |  |  |  |  |  | * (no inhibition at 64 μg/mL) | * (no inhibition at 64 μg/mL) | > 10 | inhibition at 30 µM [18]: 16%; IC50 [4, 23]: > 10 µg/mL; Range of minimum inhibitory concentration [5]: * (no inhibition at 64 μg/mL); IC50 [6, 23]: > 10 µg/mL; IC50 [7, 24]: > 10 µg/mL; IC50 [8, 23]: > 10 µg/mL; Range of minimum inhibitory concentration [9]: 8 to 16 µg/mL; IC50 [10, 23]: > 10 µg/mL; Range of minimum inhibitory concentration [11]: * (no inhibition at 64 μg/mL); Range of minimum inhibitory concentration [12]: * (no inhibition at 64 μg/mL); inhibition at 30 µM [19]: 43.2 ± 10.1%; IC50 [13, 25]: > 10 µg/mL; Range of minimum inhibitory concentration [14]: * (no inhibition at 64 μg/mL); Range of minimum inhibitory concentration [15]: * (no inhibition at 64 μg/mL); Range of minimum inhibitory concentration [16]: * (no inhibition at 64 μg/mL); Range of minimum inhibitory concentration [17]: * (no inhibition at 64 μg/mL) |
| COc1cc(CN2C=Cc3cc(OC)c(OC)c4c3c2cc[n+]4Cc2cc(OC)c(OC)c(OC)c2)cc(OC)c1OC.[Br-] [Compound 10c, 8,9-Dimethoxy-1,4-bis-(3,4,5-trimethoxy-benzyl)-4H-benzo[de][1,6]-naphthyridin-1-ium bromide] |  |  |  |  |  |  |  |  |  |  |  |  |  |  |  |  |  | * (no inhibition at 64 μg/mL) | * (no inhibition at 64 μg/mL) | > 10 | melting point: 116 to 118 °C; IC50 [4, 23]: > 10 µg/mL; Range of minimum inhibitory concentration [5]: * (no inhibition at 64 μg/mL); IC50 [6, 23]: > 10 µg/mL; IC50 [7, 24]: > 10 µg/mL; IC50 [8, 23]: > 10 µg/mL; Range of minimum inhibitory concentration [9]: 64 µg/mL; IC50 [10, 23]: > 10 µg/mL; Range of minimum inhibitory concentration [11]: * (no inhibition at 64 μg/mL); Range of minimum inhibitory concentration [12]: * (no inhibition at 64 μg/mL); inhibition at 30 µM [19]: 19.5 ± 7.6%; IC50 [13, 25]: > 10 µg/mL; Range of minimum inhibitory concentration [14]: * (no inhibition at 64 μg/mL); Range of minimum inhibitory concentration [15]: * (no inhibition at 64 μg/mL); Range of minimum inhibitory concentration [16]: * (no inhibition at 64 μg/mL); Range of minimum inhibitory concentration [17]: * (no inhibition at 64 μg/mL) |
| COc1ccc(CN2C=Cc3cc(OC)c(OC)c4c3c2cc[n+]4C)cc1.[I-] [Compound 17, 1-Methyl-4-(4-methoxybenzyl)-8,9-dimethoxy-4H-benzo[de][1,6]-naphthyridin-1-ium iodide] | > 64 | 64 | 8 | 5.4 | > 64 | 5.9 | 3.1 | 4.6 | 4 to 8 | 7 | > 64 | > 64 | 7.5 | > 64 | > 64 | > 64 | > 64 |  |  |  |  |
